{"source": "patent US20250262201A1", "about": "“COMPOUNDS AND METHODS USEFUL FOR STABILIZING PHENYLALANINE HYDROXYLASE MUTATIONS” (Agios Pharmaceuticals, Inc., priority 2022, published 2025)", "target": "T1, human PAH with the R408W mutation (Homo sapiens, UniProt P00439, R408W)", "T1 construct": "expressed in transfected cells", "T1 sequence (P00439 1-452 R408W)": "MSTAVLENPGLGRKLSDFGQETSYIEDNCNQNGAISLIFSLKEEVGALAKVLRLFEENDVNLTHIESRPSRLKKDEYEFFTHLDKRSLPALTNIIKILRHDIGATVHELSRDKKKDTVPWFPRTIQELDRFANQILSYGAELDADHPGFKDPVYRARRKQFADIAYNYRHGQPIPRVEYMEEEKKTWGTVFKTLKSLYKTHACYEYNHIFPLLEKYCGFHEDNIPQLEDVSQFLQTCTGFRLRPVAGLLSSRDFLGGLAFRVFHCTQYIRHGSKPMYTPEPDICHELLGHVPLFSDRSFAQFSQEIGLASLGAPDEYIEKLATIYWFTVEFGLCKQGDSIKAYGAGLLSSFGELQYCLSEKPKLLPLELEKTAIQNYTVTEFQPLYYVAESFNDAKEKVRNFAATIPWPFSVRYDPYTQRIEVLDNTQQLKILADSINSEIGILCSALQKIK", "test": "Cell Based Phenylalanine Flux Assay", "details": "A375 cells expressing human R408W PAH; 24 hrs compound incubation; 13C-Tyrosine by LC-MS; average where tested multiple times; read-out: AC50", "description": "Compounds were resuspended in DMSO, and 2-fold serial dilutions were performed to generate a 10-point dose curve. Compounds were added to plated cells in a total volume of 100 pal, and a final DMSO concentration of 0.5%. Each compound was tested in duplicate. Following compound addition, cells were placed in a 5% CO2, 37° C. tissue culture incubator for 24 hrs. After the incubation period, 20 μM sepiapterin and 800 μM 13C9,15N-Phenylalanine were added. After 4 hours, cell media was removed. An aliquot of 10 μl of cell media was combined with 200 μl of extraction buffer (80% acetonitrile/20% H2O) for each well. Determination of ^13C-Tyrosine concentration was assessed by liquid chromatography mass spectrometry.", "data": [{"smiles": "CC(C)(O)c1nc(Br)c(C(=O)N2CCc3[nH]cnc3C2c2ccc3ccccc3n2)o1", "note": "(stereo in doubt) [Example 98, (S)-(4-bromo-2-(2-hydroxypropan-2-yl)oxazol-5-yl)(4-(quinolin-2-yl)-6,7-dihydro-1H-imidazo[4,5-c]pyridin-5(4H)-yl)methanone]", "values": [{"measurement": "AC50", "result": "1000 to 5000", "unit": "nM"}]}, {"smiles": "Cc1nc([C@H](C)O)oc1C(=O)N1CCc2[nH]cnc2C1c1ccc2ccccc2n1", "note": "(stereo in doubt) [Example 99, (2-((S)-1-hydroxyethyl)-4-methyloxazol-5-yl)((R)-4-(quinolin-2-yl)-6,7-dihydro-1H-imidazo[4,5-c]pyridin-5(4H)-yl)methanone]", "values": [{"measurement": "AC50", "result": "1000 to 5000", "unit": "nM"}]}, {"smiles": "Cc1nc(C2(O)CCC2)oc1C(=O)N1CCc2[nH]cnc2C1c1ccc2ccccc2n1", "note": "(stereo in doubt) [Example 101, (R)-(2-(1-hydroxycyclobutyl)-4-methyloxazol-5-yl)(4-(quinolin-2-yl)-6,7-dihydro-1H-imidazo[4,5-c]pyridin-5(4H)-yl)methanone]", "values": [{"measurement": "AC50", "result": "500 to 1000", "unit": "nM"}]}, {"smiles": "Cc1nc(C2(O)CCC2)oc1C(=O)N1CCc2[nH]cnc2C1c1ccc2ccccc2n1", "note": "(stereo in doubt) [Example 102, (S)-(2-(1-hydroxycyclobutyl)-4-methyloxazol-5-yl)(4-(quinolin-2-yl)-6,7-dihydro-1H-imidazo[4,5-c]pyridin-5(4H)-yl)methanone]", "values": [{"measurement": "AC50", "result": "> 5000", "unit": "nM"}]}, {"smiles": "Cc1ccc(-c2nnc(C(=O)N3CCc4[nH]cnc4C3c3ccc4ccccc4n3)o2)nc1", "note": "(stereo in doubt) [Example 103, (S)-(5-(5-methylpyridin-2-yl)-1,3,4-oxadiazol-2-yl)(4-(quinolin-2-yl)-6,7-dihydro-1H-imidazo[4,5-c]pyridin-5(4H)-yl)methanone]", "values": [{"measurement": "AC50", "result": "1000 to 5000", "unit": "nM"}]}, {"smiles": "Cc1ccc(-c2nnc(C(=O)N3CCc4[nH]cnc4C3c3ccc4ccccc4n3)o2)nc1", "note": "(stereo in doubt) [Example 104, (R)-(5-(5-methylpyridin-2-yl)-1,3,4-oxadiazol-2-yl)(4-(quinolin-2-yl)-6,7-dihydro-1H-imidazo[4,5-c]pyridin-5(4H)-yl)methanone]", "values": [{"measurement": "AC50", "result": "< 500", "unit": "nM"}]}, {"smiles": "CC(C)(F)c1nnc(C(=O)N2CCc3[nH]cnc3C2c2ccc3ccccc3n2)o1", "note": "(stereo in doubt) [Example 105, (R)-(5-(2-fluoropropan-2-yl)-1,3,4-oxadiazol-2-yl)(4-(quinolin-2-yl)-6,7-dihydro-1H-imidazo[4,5-c]pyridin-5(4H)-yl)methanone]", "values": [{"measurement": "AC50", "result": "500 to 1000", "unit": "nM"}]}, {"smiles": "CC(C)(F)c1nnc(C(=O)N2CCc3[nH]cnc3C2c2ccc3ccccc3n2)o1", "note": "(stereo in doubt) [Example 106, (S)-(5-(2-fluoropropan-2-yl)-1,3,4-oxadiazol-2-yl)(4-(quinolin-2-yl)-6,7-dihydro-1H-imidazo[4,5-c]pyridin-5(4H)-yl)methanone]", "values": [{"measurement": "AC50", "result": "1000 to 5000", "unit": "nM"}]}, {"smiles": "O=C(c1nnc(-c2cc(C(F)(F)F)ccn2)o1)N1CCc2[nH]cnc2C1c1ccc2ccccc2n1", "note": "(stereo in doubt) [Example 107, (R)-(4-(quinolin-2-yl)-6,7-dihydro-1H-imidazo[4,5-c]pyridin-5(4H)-yl)(5-(4-(trifluoromethyl)pyridin-2-yl)-1,3,4-oxadiazol-2-yl)methanone]", "values": [{"measurement": "AC50", "result": "500 to 1000", "unit": "nM"}]}, {"smiles": "O=C(c1nnc(-c2cc(C(F)(F)F)ccn2)o1)N1CCc2[nH]cnc2C1c1ccc2ccccc2n1", "note": "(stereo in doubt) [Example 108, (S)-(4-(quinolin-2-yl)-6,7-dihydro-1H-imidazo[4,5-c]pyridin-5(4H)-yl)(5-(4-(trifluoromethyl)pyridin-2-yl)-1,3,4-oxadiazol-2-yl)methanone]", "values": [{"measurement": "AC50", "result": "1000 to 5000", "unit": "nM"}]}, {"smiles": "O=C(c1cn(-c2ccccn2)nc1Cl)N1CCc2[nH]cnc2C1c1ccc2ccccc2n1", "note": "(stereo in doubt) [Example 109, (R)-(3-chloro-1-(pyridin-2-yl)-1H-pyrazol-4-yl)(4-(quinolin-2-yl)-6,7-dihydro-1H-imidazo[4,5-c]pyridin-5(4H)-yl)methanone]", "values": [{"measurement": "AC50", "result": "1000 to 5000", "unit": "nM"}]}, {"smiles": "O=C(c1cn(-c2ccccn2)nc1Cl)N1CCc2[nH]cnc2C1c1ccc2ccccc2n1", "note": "(stereo in doubt) [Example 110, (S)-(3-chloro-1-(pyridin-2-yl)-1H-pyrazol-4-yl)(4-(quinolin-2-yl)-6,7-dihydro-1H-imidazo[4,5-c]pyridin-5(4H)-yl)methanone]", "values": [{"measurement": "AC50", "result": "1000 to 5000", "unit": "nM"}]}, {"smiles": "Cc1nc([C@@H](C)O)oc1C(=O)N1CCc2[nH]cnc2C1c1ccc2ccccc2n1", "note": "(stereo in doubt) [Example 111, (2-((R)-1-hydroxyethyl)-4-methyloxazol-5-yl)((R)-4-(quinolin-2-yl)-6,7-dihydro-1H-imidazo[4,5-c]pyridin-5(4H)-yl)methanone]", "values": [{"measurement": "AC50", "result": "500 to 1000", "unit": "nM"}]}, {"smiles": "CC(C)(O)c1nc(Cl)c(C(=O)N2CCc3[nH]cnc3C2c2ccc3ccccc3n2)o1", "note": "(stereo in doubt) [Example 113, (R)-(4-chloro-2-(2-hydroxypropan-2-yl)oxazol-5-yl)(4-(quinolin-2-yl)-6,7-dihydro-1H-imidazo[4,5-c]pyridin-5(4H)-yl)methanone]", "values": [{"measurement": "AC50", "result": "< 500", "unit": "nM"}]}, {"smiles": "CC(C)(O)c1nc(Cl)c(C(=O)N2CCc3[nH]cnc3C2c2ccc3ccccc3n2)o1", "note": "(stereo in doubt) [Example 114, (S)-(4-chloro-2-(2-hydroxypropan-2-yl)oxazol-5-yl)(4-(quinolin-2-yl)-6,7-dihydro-1H-imidazo[4,5-c]pyridin-5(4H)-yl)methanone]", "values": [{"measurement": "AC50", "result": "> 5000", "unit": "nM"}]}, {"smiles": "O=C(c1nnc(-c2cc[nH]n2)o1)N1CCc2[nH]cnc2C1c1ccc2ccccc2n1", "note": "(stereo in doubt) [Example 115, (R)-(5-(1H-pyrazol-3-yl)-1,3,4-oxadiazol-2-yl)(4-(quinolin-2-yl)-6,7-dihydro-1H-imidazo[4,5-c]pyridin-5(4H)-yl)methanone]", "values": [{"measurement": "AC50", "result": "< 500", "unit": "nM"}]}, {"smiles": "O=C(c1nnc(-c2cc[nH]n2)o1)N1CCc2[nH]cnc2C1c1ccc2ccccc2n1", "note": "(stereo in doubt) [Example 116, (S)-(5-(1H-pyrazol-3-yl)-1,3,4-oxadiazol-2-yl)(4-(quinolin-2-yl)-6,7-dihydro-1H-imidazo[4,5-c]pyridin-5(4H)-yl)methanone]", "values": [{"measurement": "AC50", "result": "1000 to 5000", "unit": "nM"}]}, {"smiles": "Cc1nc(C(C)(C)C#N)oc1C(=O)N1CCc2[nH]cnc2C1c1ccc2ccccc2n1", "note": "(stereo in doubt) [Example 117, (S)-2-methyl-2-(4-methyl-5-(4-(quinolin-2-yl)-4,5,6,7-tetrahydro-1H-imidazo[4,5-c]pyridine-5-carbonyl)oxazol-2-yl)propanenitrile]", "values": [{"measurement": "AC50", "result": "1000 to 5000", "unit": "nM"}]}, {"smiles": "Cc1nc(C(C)(C)C#N)oc1C(=O)N1CCc2[nH]cnc2C1c1ccc2ccccc2n1", "note": "(stereo in doubt) [Example 118, (R)-2-methyl-2-(4-methyl-5-(4-(quinolin-2-yl)-4,5,6,7-tetrahydro-1H-imidazo[4,5-c]pyridine-5-carbonyl)oxazol-2-yl)propanenitrile]", "values": [{"measurement": "AC50", "result": "< 500", "unit": "nM"}]}, {"smiles": "C[C@@H](O)c1nc(C(F)F)c(C(=O)N2CCc3[nH]cnc3C2c2ccc3ccccc3n2)o1", "note": "(stereo in doubt) [Example 119, (4-(difluoromethyl)-2-((R)-1-hydroxyethyl)oxazol-5-yl)((S)-4-(quinolin-2-yl)-6,7-dihydro-1H-imidazo[4,5-c]pyridin-5(4H)-yl)methanone]", "values": [{"measurement": "AC50", "result": "1000 to 5000", "unit": "nM"}]}, {"smiles": "C[C@@H](O)c1nc(C(F)F)c(C(=O)N2CCc3[nH]cnc3C2c2ccc3ccccc3n2)o1", "note": "(stereo in doubt) [Example 120, (4-(difluoromethyl)-2-((R)-1-hydroxyethyl)oxazol-5-yl)((R)-4-(quinolin-2-yl)-6,7-dihydro-1H-imidazo[4,5-c]pyridin-5(4H)-yl)methanone]", "values": [{"measurement": "AC50", "result": "< 500", "unit": "nM"}]}, {"smiles": "C[C@H](O)c1nc(C(F)F)c(C(=O)N2CCc3[nH]cnc3C2c2ccc3ccccc3n2)o1", "note": "(stereo in doubt) [Example 121, (4-(difluoromethyl)-2-((S)-1-hydroxyethyl)oxazol-5-yl)((S)-4-(quinolin-2-yl)-6,7-dihydro-1H-imidazo[4,5-c]pyridin-5(4H)-yl)methanone]", "values": [{"measurement": "AC50", "result": "1000 to 5000", "unit": "nM"}]}, {"smiles": "C[C@H](O)c1nc(C(F)F)c(C(=O)N2CCc3[nH]cnc3C2c2ccc3ccccc3n2)o1", "note": "(stereo in doubt) [Example 122, (4-(difluoromethyl)-2-((S)-1-hydroxyethyl)oxazol-5-yl)((R)-4-(quinolin-2-yl)-6,7-dihydro-1H-imidazo[4,5-c]pyridin-5(4H)-yl)methanone]", "values": [{"measurement": "AC50", "result": "< 500", "unit": "nM"}]}, {"smiles": "O=C(c1cn[nH]c1Cl)N1CCc2[nH]cnc2C1c1ccc2ccccc2n1", "note": "(stereo in doubt) [Example 123, (S)-(5-chloro-1H-pyrazol-4-yl)(4-(quinolin-2-yl)-6,7-dihydro-1H-imidazo[4,5-c]pyridin-5(4H)-yl)methanone]", "values": [{"measurement": "AC50", "result": "1000 to 5000", "unit": "nM"}]}, {"smiles": "O=C(c1cn[nH]c1Cl)N1CCc2[nH]cnc2C1c1ccc2ccccc2n1", "note": "(stereo in doubt) [Example 124, (R)-(5-chloro-1H-pyrazol-4-yl)(4-(quinolin-2-yl)-6,7-dihydro-1H-imidazo[4,5-c]pyridin-5(4H)-yl)methanone]", "values": [{"measurement": "AC50", "result": "500 to 1000", "unit": "nM"}]}, {"smiles": "O=C(c1cnn(CC(F)(F)F)c1C(F)F)N1CCc2[nH]cnc2C1c1ccc2ccccc2n1", "note": "(stereo in doubt) [Example 125, (R)-(5-(difluoromethyl)-1-(2,2,2-trifluoroethyl)-1H-pyrazol-4-yl)(4-(quinolin-2-yl)-6,7-dihydro-1H-imidazo[4,5-c]pyridin-5(4H)-yl)methanone]", "values": [{"measurement": "AC50", "result": "1000 to 5000", "unit": "nM"}]}, {"smiles": "O=C(c1cnn(CC(F)(F)F)c1C(F)F)N1CCc2[nH]cnc2C1c1ccc2ccccc2n1", "note": "(stereo in doubt) [Example 126, (S)-(5-(difluoromethyl)-1-(2,2,2-trifluoroethyl)-1H-pyrazol-4-yl)(4-(quinolin-2-yl)-6,7-dihydro-1H-imidazo[4,5-c]pyridin-5(4H)-yl)methanone]", "values": [{"measurement": "AC50", "result": "> 5000", "unit": "nM"}]}]}
